Results as given in BindingDB's records for doi:10.7270/Q2959KQ0 (n/a, 1993).

Target: T1, 5-hydroxytryptamine receptor 3A/3B (Rattus norvegicus, UniProt P35563+Q9JJ16)
T1 sequence (P35563 whole entry): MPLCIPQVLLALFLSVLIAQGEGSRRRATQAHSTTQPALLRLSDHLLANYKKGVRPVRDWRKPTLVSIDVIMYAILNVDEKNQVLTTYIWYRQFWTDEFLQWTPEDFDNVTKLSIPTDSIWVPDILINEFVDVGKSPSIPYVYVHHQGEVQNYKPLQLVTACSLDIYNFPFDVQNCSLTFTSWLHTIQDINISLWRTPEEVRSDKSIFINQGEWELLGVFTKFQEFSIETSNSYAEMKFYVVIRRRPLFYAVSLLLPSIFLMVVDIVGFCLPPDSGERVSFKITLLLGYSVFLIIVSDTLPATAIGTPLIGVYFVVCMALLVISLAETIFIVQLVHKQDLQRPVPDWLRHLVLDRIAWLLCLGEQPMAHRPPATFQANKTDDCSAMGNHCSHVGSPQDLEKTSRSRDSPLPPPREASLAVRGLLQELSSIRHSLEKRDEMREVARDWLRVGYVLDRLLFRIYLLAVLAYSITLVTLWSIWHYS
T1 sequence (Q9JJ16 whole entry): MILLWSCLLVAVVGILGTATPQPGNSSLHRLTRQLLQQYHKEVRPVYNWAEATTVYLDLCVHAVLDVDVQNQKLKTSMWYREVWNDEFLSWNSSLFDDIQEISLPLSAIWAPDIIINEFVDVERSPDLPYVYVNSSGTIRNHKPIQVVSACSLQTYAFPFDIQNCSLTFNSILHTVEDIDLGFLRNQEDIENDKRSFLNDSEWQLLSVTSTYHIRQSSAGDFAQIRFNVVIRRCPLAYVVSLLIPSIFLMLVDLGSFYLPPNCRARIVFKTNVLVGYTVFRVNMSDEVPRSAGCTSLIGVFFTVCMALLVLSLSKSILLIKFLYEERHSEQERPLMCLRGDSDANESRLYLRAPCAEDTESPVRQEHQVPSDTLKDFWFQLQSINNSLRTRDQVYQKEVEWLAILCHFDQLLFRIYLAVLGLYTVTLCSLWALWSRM
Test: Binding affinity to 5-hydroxytryptamine 3 receptor was determined in rat cerebro cortical membranes using [3H]quipazine.

`COc1cc(N)c(Cl)cc1C(=O)N[C@H]1CN2CCC1CC2` [4-Amino-N-(R)-1-aza-bicyclo[2.2.2]oct-3-yl-5-chloro-2-methoxy-benzamide] was tested. Which Ki did it give?
Its Ki is 3.2 nM.
